Measured values: ChEMBL document CHEMBL4613257, “Advanced Glycation End Product Inhibition by Alkaloids from Ocotea paranapiacabensis for the Prevention of Skin Aging” (2020)

What was measured:
Format in all cases: functional
[1] = Anti-glycation activity assessed as inhibition of AGE formation at 150 uM incubated for 3 days in presence of BSA and MGO by fluorescence based assay relative to control; set-up: scale not given: the % may be the effect or the level left
[2] = tested on: Zone of skin; experiment: Anti-aging activity in reconstructed human skin assessed as dermis contraction at 150 uM by hematoxylin and eosin staining-based microscopic analysis (reference value: 57.4%)
[3] = tested on: Zone of skin; experiment: Anti-aging activity in reconstructed human skin assessed as dermis contraction at 10 mM by hematoxylin and eosin staining-based microscopic analysis (reference value: 57.4%)
[4] = Anti-glycation activity assessed as inhibition of AGE formation at 10 mM incubated for 3 days in presence of BSA and MGO by fluorescence based assay relative to control; set-up: scale not given: the % may be the effect or the level left

**Q.** What does the source list for `C[N+]1(C)CCc2cc(O)c(O)cc2C1Cc1ccc(O)cc1` (stereo not drawn)?
**A.** Activity [1]: 61.5 to 63%; Activity [2]: 8.7%

**Q.** Which Activity [1] does the source give for `CN1CCc2cc(O)c(O)cc2C1Cc1ccc(O)cc1` (stereo not drawn) here?
**A.** The Activity was 98.2%.

**Q.** And the Activity [2]?
**A.** The Activity was 4.2%.

**Q.** Which Activity [1] does the source give for `C[N+]1(C)C=Cc2cc(O)c(O)cc2C1Cc1ccc(O)cc1` (stereo not drawn) here?
**A.** The Activity was 83.3%.

**Q.** For `N=C(N)NN` [PIMAGEDINE], which Activity [3] is on record?
**A.** The Activity was 49.7%.

**Q.** What about the Activity [4] of the same molecule?
**A.** The Activity was 92.2%.

**Q.** With `COc1cc2c(cc1O)C(Cc1ccc(O)cc1)[N+](C)(C)CC2` (stereo not drawn) as the molecule, how does the Activity [1] read?
**A.** Its Activity is 26.1%.
